Key:
[1] = tested on: D5 or primary T cells; assay: apoptosis assays of ionomycin-stimulated T cells; assay type: cell-based, murine; conditions: several independent assays
Experimental: Apoptosis was detected by the Tunel method using the In situ Cell Death Detection kit (Boheringer) following manufacture's instructions. Stained cells were analyzed on a FACSCAN (Beckton-Dickinson).
(§1) Of particular interest was the fact that several of the ionomycin-induced genes encoded proteins involved (or potentially involved) in protein degradation. Candidate genes in this category included caspase-3, SOCS-2 and Traf5 (FIG. 6B). Caspase-3 is an enzyme for which commercial reagents are readily available. Tests were conducted to determine whether caspase-3 was activated and functional in ionomycin-pretreated T cells. […] Further work will be necessary to establish whether proteolysis occurs in specific intracellular compartments relevant to TCR signal transduction or whether other signaling proteins are substrates for proteolysis in anergic cells.

[2] = tested on: Th2 cells; assay: cytokine mRNA levels in Th2 cells after ionomycin pretreatment; assay type: cell-based
Experimental: (§2) Total cellular RNA was purified from resting cells or cells stimulated with APC and antigen or anti-CD3 plus anti-CD28 for 4 h, using Ultraspec reagent (Biotecx) and analyzed using the RiboQuant multiprobe RNase protection kit and specific multi-set probes (Pharmingen) according to the manufacturer's instructions. Jurkat cells were transfected by electroporation in serum-free medium with pulses of 250 V and 960 μF with […] of pEGFPN1 (Clontech) or pNLS-NFAT1 (ST2+5+8) (Okamura et al., (2000) Mol. Cell. 6: 539-550). RNA from transiently transfected Jurkat cells was obtained after selecting transfected cells for expression of a cotransfected murine CD4 plasmid using magnetic beads (Dynal).
Thus the net effect of a tolerising stimulus on T cells is to skew the cytokine response towards production of the immunosuppressive cytokine […], while down-regulating production of multiple other cytokines and chemokines associated with a productive immune response.

[3] = tested on: caspase-3; assay: RNase protection assay of caspase-3 mRNA; assay type: cell-based, murine; conditions: D5 T cells
Experimental: as §2, §1

[4] = tested on: D5 T cells; assay: proliferation assay (3H-thymidine) of D5 T cells after ionomycin pretreatment; assay type: cell-based, murine
Experimental: D5 or primary T cells were stimulated with APC and antigen and pulsed for 24 hours with 10 μCi/ml ^3H-thymidine. DNA was collected using a cell harvester and the amount of radioactivity incorporated was measured in a β-counter.
(§3) The murine antigen-specific Th1 clone D5 was used to set up the model of clonal anergy developed by Schwartz and coworkers (Schwartz, (1996) J. Exp. Med. 184: 1-8).

[5] = tested on: D5 cells; assay: transcription of inducible genes in ionomycin-treated D5 cells on second stimulation (RNase protection); assay type: cell-based, murine; conditions: second stimulation with anti-CD3/anti-CD28 or antigen/APC
Experimental: as §2, §3

Compound: C[C@H](CCC(=O)O)C[C@H](C)C[C@H](C)C(=O)/C=C(\O)[C@H](C)C[C@H](C)C/C=C/[C@@H](C)[C@@H](O)[C@@H](C)[C@@H](O)C[C@@H]1CC[C@@](C)([C@H]2CC[C@@](C)([C@@H](C)O)O2)O1 [Ionomycin, ionomycin]
- apoptosis [1]: no detectable apoptosis
- IL-10 transcript levels [2]: not affected
- reduction in mRNA levels of IL-4, IL-5 and IL-13 [2]: approximately 70%
- caspase-3 mRNA level [3]: upregulated
- subsequent proliferative response to antigen or anti-CD3 [4]: greatly diminished
- transcription of inducible genes including IL-2, IFN-γ, TNF-α, GM-CSF and MIP-1α [5]: markedly decreased

— patent publication US20030064380A1, “Anergy-regulated molecules” (The Center For Blood Research, Inc., priority 2001, published 2003)
